Source: ChEMBL document CHEMBL1145028, “Retroinverso analogue of the antiviral octapeptide C8 inhibits feline immunodeficiency virus in serum” (J Med Chem, 2003)
Values after ≈ are worked out from the molar mass of the structure shown.

How the values were obtained:
[1] = system: Feline immunodeficiency virus; test: Concentration required to inhibit feline immunodeficiency virus (FIV) replication in 50% normal cat serum (NCS); type: functional, organism-based
[2] = system: Feline immunodeficiency virus; test: Concentration required to inhibit feline immunodeficiency virus (FIV) replication in normal tissue culture medium; type: functional, organism-based

Compound	IC50 [1] [µg/mL]	IC50 [2] [µg/mL]
CC[C@@H](C)[C@@H](NC(C)=O)C(=O)N[C@H](Cc1c[nH]c2ccccc12)C(=O)NCC(=O)N[C@@H](C(=O)N[C@H](Cc1c[nH]c2ccccc12)C(=O)N[C@H](CC(=O)O)C(=O)N[C@H](CCC(=O)O)C(=O)N[C@H](Cc1c[nH]c2ccccc12)C(N)=O)C(C)C	0.8 (≈ 0.707 µM)	0.63 (≈ 0.557 µM)
Ac-WEDWVGWI-NH2	5.21	0.15
